Data reported in PubChem BioAssay AID1421 (Emory University Molecular Libraries Screening Center, 2008).
Active and inactive are the calls of the source. No rule for the calls is given here.

Target: Prostaglandin E2 receptor EP2 subtype (Homo sapiens) (UniProt P43116)
Test: compounds shifting PGE2 potency at EP2 – cell-based, human EP2, PGE2 EC50 shift, dose response (AID 1421)
Conditions: EP2-expressing cells, PGE2 EC50 shift by compound

Chain of Prostaglandin E2 receptor EP2 subtype (Homo sapiens) (P43116 whole entry, looked up): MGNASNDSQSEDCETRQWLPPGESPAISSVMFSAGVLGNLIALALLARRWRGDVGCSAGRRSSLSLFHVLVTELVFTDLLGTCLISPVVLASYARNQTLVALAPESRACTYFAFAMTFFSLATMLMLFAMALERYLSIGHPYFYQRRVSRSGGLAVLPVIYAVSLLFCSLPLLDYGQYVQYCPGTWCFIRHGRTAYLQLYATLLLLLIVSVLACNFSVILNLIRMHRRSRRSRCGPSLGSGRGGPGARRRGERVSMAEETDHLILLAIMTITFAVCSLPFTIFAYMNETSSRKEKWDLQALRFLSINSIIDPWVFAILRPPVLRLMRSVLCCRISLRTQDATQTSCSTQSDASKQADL

| SMILES | outcome |
| --- | --- |
| CC(C)C(=O)c1cc2c(cc1NC(=O)c1ccccc1)OCCO2 | active |
| CSc1ccccc1NC(=O)CN(C)Cc1cccc(Cl)c1 | active |
| Cc1cccc(C)c1OC(=O)C(c1ccccc1)c1ccccc1 | active |
| Cc1sc(NC(=O)c2ccccc2F)c(CN2CCCCC2)c1C | active |
| Cc1ccc(C(=O)Nc2ccccc2N2CCCCC2)cc1[N+](=O)[O-] | active |
| CCCSc1ncnc2sc(C)c(C)c12 | active |
| CN1CCCN(C(=O)Cc2c(Cl)cccc2Cl)c2nc3ccccc3nc21 | active |
| CC(C)(C)C1CCC(=NNc2ccc(S(N)(=O)=O)cc2[N+](=O)[O-])CC1 (configuration not stated) | active |
| C(=N/n1c2ccccc2c2ccccc21)/c1ccco1 | active |
| COc1ncnc2c1oc1nc(CC(C)C)c3c(c12)CCCC3 | active |

Same assay, conditions: EP2-expressing cells, PGE2 EC50 shift by compound; measured here: PGE2 EC50 at 6.7 uM compound

| SMILES | PGE2 EC50 with compound |
| --- | --- |
| CCc1nnc2n1N=C(c1ccc(-c3cc(Cl)ccc3Cl)o1)CS2 | 0.89 nM |
| CN(Cc1cccs1)c1nc(-c2cccnc2)nc2ccccc12 | 1.07 nM |
| CCC1Oc2ccccc2N(Cc2ccccc2C)C1=O (configuration not stated) | 2.7 nM |
| O=C(O)c1oc(C(=O)O)c(C(=O)O)c1C(=O)O | 1.51 nM |
| Cc1ccc(C(Sc2ccccc2)C(Cn2cncn2)C(=O)c2ccccc2)cc1 (configuration not stated) | 0.97 nM |
| Cc1cccc(OCCCC(=O)N2CCCc3ccccc32)c1C | 0.71 nM |
| Cc1ccc2cccc(NC(=O)c3ccc(Br)o3)c2n1 | 0.83 nM |
| CCOP(=O)(OCC)c1nc(-c2ccc(Cl)cc2Cl)oc1N1CCCCC1 | 1.42 nM |
| CC(C)C(=O)c1cc2c(cc1NC(=O)c1ccccc1)OCCO2 | 0.88 nM |
| O=C1CCCc2ccccc2N1Cc1cccc(Cl)c1 | 2.62 nM |
| CCOC(=O)Cn1c(=S)[nH]c2c(oc3ccc(Cl)cc32)c1=O | 2.77 nM |
| Cc1cccc(-n2c(CCn3nc(C)c([N+](=O)[O-])c3C)n[nH]c2=S)c1 | 2.79 nM |
| CSc1ccccc1NC(=O)CN(C)Cc1cccc(Cl)c1 | 0.97 nM |
| CCC1CCc2c(sc3ncnc(N4CCOCC4)c23)C1 (configuration not stated) | 0.81 nM |
| c1ccc(Cn2c(-c3ccccc3)nc3nc4ccccc4nc32)cc1 | 1.08 nM |
| Cc1cccc(C)c1OC(=O)C(c1ccccc1)c1ccccc1 | 2.47 nM |
| O=C(c1cc(-c2ccccn2)nc2ccc(Br)cc12)N1CCc2ccccc2C1 | 1.06 nM |
| CC1CN(c2nc3ccccc3cc2-c2ccccc2)CC(C)O1 (configuration not stated) | 0.53 nM |
| COC(=O)c1sccc1NC(=O)c1cc2c(s1)CCCC2 | 1.01 nM |
| Cc1oc(-c2ccccc2)cc1C(=O)Nc1cccc(/C=C/C(=O)O)c1 | 2.37 nM |
| CCCn1cnc2sc(CC)cc2c1=O | 1.25 nM |
| CCOc1ccc(Cc2n[nH]c(=S)n2Cc2ccccc2)cc1 | 0.69 nM |
| Cc1sc(NC(=O)c2ccccc2F)c(CN2CCCCC2)c1C | 1.09 nM |
| Cc1ccc(C(=O)N2N=C(c3ccccc3)CC2(O)C(F)(F)F)o1 (configuration not stated) | 1.62 nM |
| CCOC(=O)c1ccccc1NC(=O)C(C)Oc1ccccc1 (configuration not stated) | 1.35 nM |
| S=c1[nH]nc(-c2ccco2)n1/N=C/c1ccc(Cl)cc1Cl | 1.06 nM |

| SMILES | PGE2 EC50 with compound |
| --- | --- |
| Brc1ccc(-c2ccc(/C=N/Nc3nc(N4CCOCC4)nc(N4CCOCC4)n3)o2)cc1 | 1.01 nM |
| CCn1c2ccccc2c2nc3ccccc3nc21 | 1.55 nM |
| Cc1ccccc1-n1c(Cn2c(=O)sc3ccccc32)nnc1SCC(=O)N1CCCC1 | 1.05 nM |
| COc1ccc(OC(=O)c2cccc([N+](=O)[O-])c2)c(C(=O)/C=C/c2cccs2)c1 | 2.52 nM |
| Cc1ccc(C(=O)Nc2ccccc2N2CCCCC2)cc1[N+](=O)[O-] | 0.66 nM |
| Cc1cccc(C(=O)c2cnc3ccccc3c2-c2ccccc2)c1 | 0.95 nM |
| CCOC(=O)C1=C(C)NC(C)=C(C(=O)OC)C1c1cccc(Cl)c1Cl (configuration not stated) | 0.69 nM |
| Cc1ccnc(NS(=O)(=O)c2cccs2)c1 | 1.8 nM |
| Cc1cc2ccccc2nc1SCC(=O)NC1CCCCC1 | 2.75 nM |
| C#CCN1C(C)=C(C(=O)OC)C(c2cccc([N+](=O)[O-])c2)C(C(=O)OCC)=C1C (configuration not stated) | 2.62 nM |
| CCCSc1ncnc2sc(C)c(C)c12 | 0.89 nM |
| C1=C(c2ccccc2)Nc2ccccc2N=C1c1ccccc1 | 2.46 nM |
| CN(Cc1cc(Br)cc(Br)c1O)Cc1c(O)ccc2ccccc12 | 1.22 nM |
| CCOc1ccc(-n2nc3c(=S)[nH]nc(C)c3c2C)cc1 | 3.04 nM |
| CCCCOc1ccccc1Cn1c(=O)oc2ccc(C)cc21 | 0.92 nM |
| N#Cc1c(-c2c(Cl)cccc2Cl)noc1/C=C/Nc1ccc(C(=O)O)cc1 | 0.7 nM |
| CCOC(=O)c1c(NC(=O)c2ccoc2C)sc(C(=O)N(C)C)c1C | 0.8 nM |
| CCOC(=O)c1c(NC(=O)CSc2nnc(C)s2)sc2c1CCC(C)C2 (configuration not stated) | 0.95 nM |
| CN1CCCN(C(=O)Cc2c(Cl)cccc2Cl)c2nc3ccccc3nc21 | 0.9 nM |
| O=C(O)CCCCCCCCCCCc1ccccc1 | 0.88 nM |
| Cc1ccccc1/C=C/c1nc2ccccc2c(=O)n1CCc1ccccc1 | 1.38 nM |
| O=C(O)CCCN1C(=O)/C(=C\c2ccco2)SC1=S | 1.07 nM |
| CCOC(=O)c1c(NC(=O)CSc2nnnn2CC)sc(C)c1C | 0.81 nM |
| CCOC(=O)C(C)Sc1ncc(OC)c(Sc2ccc(Cl)cc2)n1 (configuration not stated) | 0.67 nM |
| CC(C)(C)C1CCC(=NNc2ccc(S(N)(=O)=O)cc2[N+](=O)[O-])CC1 (configuration not stated) | 1.01 nM |
| CN(/N=C/C=C/c1ccccc1)C1=NS(=O)(=O)c2ccccc21 | 0.68 nM |

| SMILES | PGE2 EC50 with compound |
| --- | --- |
| Cc1nc2ccccc2nc1SCC(=O)N1CCC(C)CC1 | 2.77 nM |
| C(=N/n1c2ccccc2c2ccccc21)/c1ccco1 | 1.08 nM |
| CSc1nnc2c3ccccc3c3ccccc3c2n1 | 1 nM |
| Clc1ccc(Cl)c(Nc2ccnc(SCc3ccccc3)n2)c1 | 0.64 nM |
| Cc1nc(N2N=C(c3ccc(Cl)cc3)CC2c2ccco2)sc1C(=O)N(C)C (configuration not stated) | 2.73 nM |
| CCOC(=O)C1=C(C)OC(N)=C(C#N)C1c1cc(C)sc1C (configuration not stated) | 1.3 nM |
| O=C(CSCc1c(Cl)cccc1Cl)Nc1ccccc1-c1ccccc1 | 1.36 nM |
| Nc1ccc(Cl)cc1C(=O)c1ccccc1Cl | 1.16 nM |
| CCOC(=O)c1c(C2COc3ccccc3O2)csc1N (configuration not stated) | 1.39 nM |
| C[C@H](CCC(=O)O)[C@@H]1CC[C@@H]2[C@H]3CC[C@@H]4C[C@H](O)CC[C@@]4(C)[C@@H]3CC[C@]21C | 1.38 nM |
| O=C(c1ccc(Cl)cc1)c1oc2ccccc2c1CS(=O)(=O)c1ccccc1 | 2.88 nM |
| O=c1n(Cc2ccccc2F)c2ccccc2n1Cc1ccccc1F | 1.01 nM |
| S=c1[nH]nc(C23CC4CC(CC(C4)C2)C3)n1Cc1ccco1 | 2.45 nM |
| COc1ncnc2c1oc1nc(CC(C)C)c3c(c12)CCCC3 | 0.91 nM |
| Cc1ccc(Cl)cc1NC1=NC(=S)N(C(C)C)C12CCCCC2 | 0.77 nM |
| CC(=O)c1ccc2c(c1)c1ccccc1n2CC(C)C | 1.35 nM |
| CC(C)(Oc1ccc(Cl)cc1)C(=O)N(Cc1ccccc1)c1ccccn1 | 1.07 nM |
| Cc1ccccc1N=C1SCC(=O)N1Cc1ccccc1 | 1.2 nM |
| C/C(=N\N=C(c1ccccc1)c1ccccc1)c1ccco1 | 0.97 nM |
| Cc1ccccc1NC(=O)/C(=C/c1ccccc1)c1ccccc1 | 1.23 nM |
| Cc1ccc(S(=O)(=O)Nc2ccc(Cl)cc2C(=O)c2ccc(F)cc2)cc1 | 0.97 nM |
| C=CCSc1nc2ccccc2c(=O)n1Cc1ccco1 | 0.91 nM |
| COc1ccccc1/C=N/N(C(C)=O)c1nc(-c2ccc(F)cc2)cs1 | 1.1 nM |
| Clc1ccccc1Cn1c(/C=C/c2ccco2)nc2ccccc21 | 0.99 nM |
| O=c1c2ccccc2c2ccccc2c(=O)n1Cc1ccco1 | 1.09 nM |
